Molecular target: T1, Delta-5-Desaturase (D5D), membrane preparations of D5D-overexpressing HEK293 6E cells (Homo sapiens, UniProt O60427)
T1 construct: expressed in transfected cells; host or cells: HEK293 6E cells (membrane preparation)
Experiment: In vitro measurement of Delta-5-Desaturase inhibitory activity using DGLA-CoA and Arachidonyl-CoA mass spectrometric assays
Assay type: biochemical
Conditions: D5D membrane 10 μg/mL, one-hour incubation, average of at least two independent runs
Experimental: In Vitro Measurement of Delta-5-Desaturase Inhibitory Activity Using DGLA-CoA and Arachidonyl-CoA Mass Spectrometric Assays Membrane preparations of D5D-overexpressing HEK293 6E cells were prepared in which the total protein concentration was 5.6 mg/mL. Stock D5D membrane preparations were diluted in D5D assay buffer (25 mM 2-amino-2-(hydroxymethyl)-1,3-propanediol, pH 7.5 containing 10 mM MgCl2, 1 mM octyl glucoside (SigmaAldrich O-8001), 1 mM tris(2-carboxyethyl)phosphine hydrochloride (SigmaAldrich 646547)) to a final D5D membrane concentration of 10 μg/mL in an assay plate containing serially diluted test compounds. To 15 μL of this D5D preparation was added 15 μL of a substrate solution (0.25 mM NADH (nicotinamide adenine dinucleotide, Roche Diag. 10107735001), 0.25 mM adenosine triphosphate (SigmaAldrich A-3377), 0.05 mM coenzyme A hydrate (SigmaAldrich C-4282), and 0.01 mM DGLA (dihomo-g-linolenic acid, Sigma E-4504) in the same D5D assay buffer. After one-hour incubation at ambient temperature acetonitrile (30 μL) was added to quench the reaction and plates were centrifuged for 10 min @ 3,000 rpm. Mass spectrometric analysis involved a Rapidfire 360 SPE system coupled to an ABSciex API4000 Triple Quadrupole mass spectrometer using a C18 SPE cartridge (G9203-80105) with ionization in negative mode (solvent A=100% water; solvent B=100% acetonitrile, each solvent containing 5 mM ammonium acetate). DGLA-CoA and Arachidonyl-CoA were detected by multiple reaction monitoring (MRM) of the doubly charged parent ions at m/z 526.6 and 525.6, respectively. […] Sx is value from unknown sample, So is value from DMSO alone and Sc is value from no enzyme well. For CRC analysis, the % of inhibitions were analysed with 4 Parameter Logistic Model or Sigmoidal Dose-Response Model using XLfit (IDBS, Guilford, UK). The potency of the test item was expressed as IC50 nM, corresponding to the test item concentration able to inhibit the 50% of the enzyme maximal response. IC50 values were averaged values determined by at least two independent runs. The results presented in Table 15 have been generated with the in vitro assay described above. This assay may be used to test any of the compounds described herein to assess and characterize a compound's ability to inhibit D5D.

T1 sequence (O60427 whole entry, species assumed): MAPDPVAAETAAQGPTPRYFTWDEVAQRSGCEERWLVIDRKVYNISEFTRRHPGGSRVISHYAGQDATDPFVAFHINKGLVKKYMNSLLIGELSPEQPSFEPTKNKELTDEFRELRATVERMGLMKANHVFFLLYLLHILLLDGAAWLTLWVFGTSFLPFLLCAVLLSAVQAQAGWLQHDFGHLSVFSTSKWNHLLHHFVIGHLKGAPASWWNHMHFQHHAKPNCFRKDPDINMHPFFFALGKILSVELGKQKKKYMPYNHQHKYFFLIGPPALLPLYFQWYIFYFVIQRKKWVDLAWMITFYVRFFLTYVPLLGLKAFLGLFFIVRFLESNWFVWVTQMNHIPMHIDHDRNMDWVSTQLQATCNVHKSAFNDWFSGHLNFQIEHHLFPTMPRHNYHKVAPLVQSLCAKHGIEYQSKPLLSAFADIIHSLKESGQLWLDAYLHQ

| SMILES | IC50 |
| --- | --- |
| Cc1cn2c(=O)c(-c3cnn(CC(F)(F)C(F)(F)F)c3)c(C(F)(F)F)nc2n1CC(C)O (stereo not shown) [Example 64, 1-(2-hydroxypropyl)-2-methyl-6-[1-(2,2,3,3,3-pentafluoropropyl)-1H-pyrazol-4-yl]-7-(trifluoromethyl)-1H,5H-imidazo[1,2-a]pyrimidin-5-one] | 239 nM |
| O=c1c(-c2cnn(CC(F)(F)C(F)(F)F)c2)c(C(F)(F)F)nc2sc(C3CC3)nn12 [Example 11, 2-cyclopropyl-6-[1-(2,2,3,3,3-pentafluoropropyl)-1H-pyrazol-4-yl]-7-(trifluoromethyl)-5H-[1,3,4]thiadiazolo[3,2-a]pyrimidin-5-one] | 133 nM |
| Cc1cn2c(=O)c(-c3ccc(OCC(F)(F)F)cc3)c(C(F)(F)F)nc2n1CC1CC1 [Example 68, 1-(cyclopropylmethyl)-2-methyl-6-[4-(2,2,2-trifluoroethoxy)phenyl]-7-(trifluoromethyl)-1H,5H-imidazo[1,2-a]pyrimidin-5-one] | 356 nM |
| Cc1cn2c(=O)c(-c3cnn(CC(F)(F)C(F)(F)F)c3)c(C(F)(F)F)nc2n1CC(C)(C)O [Example 88, 1-(2-hydroxy-2-methylpropyl)-2-methyl-6-[1-(2,2,3,3,3-pentafluoropropyl)-1H-pyrazol-4-yl]-7-(trifluoromethyl)-1H,5H-imidazo[1,2-a]pyrimidin-5-one] | 631 nM |
| Cn1c(Cl)cn2c(=O)c(-c3cnn(CCC(F)(F)F)c3)c(C(F)(F)F)nc12 [Example 51, 2-chloro-1-methyl-7-(trifluoromethyl)-6-[1-(3,3,3-trifluoropropyl)-1H-pyrazol-4-yl]-1H,5H-imidazo[1,2-a]pyrimidin-5-one] | 36.8 nM |
| Cc1cn2c(=O)c(-c3cnn(CCC(F)(F)F)c3)c(C(F)(F)F)nc2n1C[C@@H]1CC1(F)F (single isomer, unassigned) [Example 115] | 39 nM |
| Cc1nn2c(=O)c(-c3cnn(CC(F)(F)C(F)(F)F)c3)c(C(F)(F)F)nc2n1C [Example 13, 2,3-dimethyl-6-[1-(2,2,3,3,3-pentafluoropropyl)-1H-pyrazol-4-yl]-5-(trifluoromethyl)-3H,7H-[1,2,4]triazolo[1,5-a]pyrimidin-7-one] | 249 nM |
| O=c1c(-c2cnn(CC(F)(F)C(F)(F)F)c2)c(C(F)(F)F)nc2sc(CF)nn12 [Example 104, 2-(fluoromethyl)-6-[1-(2,2,3,3,3-pentafluoropropyl)-1H-pyrazol-4-yl]-7-(trifluoromethyl)-5H-[1,3,4]thiadiazolo[3,2-a]pyrimidin-5-one] | 100 nM |
| O=c1c(-c2cnn(CC(F)(F)C(F)(F)F)c2)c(C(F)(F)F)nc2n1CC1CC21 (stereo not shown) [Example 25, 8-[1-(2,2,3,3,3-pentafluoropropyl)-1H-pyrazol-4-yl]-9-(trifluoromethyl)-6,10-diazatricyclo[4.4.0.0^2,4]deca-1(10),8-dien-7-one] | 354 nM |
| Cc1nn2c(=O)c(-c3cnn(CC4COC4)c3)c(C(F)(F)F)nc2s1 [Example 29, 2-methyl-6-{1-[(oxetan-3-yl)methyl]-1H-pyrazol-4-yl}-7-(trifluoromethyl)-5H-[1,3,4]thiadiazolo[3,2-a]pyrimidin-5-one] | 1580 nM |
| Cc1cn2c(=O)c(-c3cnn(CC4COC4)c3)c(C(F)(F)F)nc2n1C [Example 65, 1,2-dimethyl-6-{1-[(oxetan-3-yl)methyl]-1H-pyrazol-4-yl}-7-(trifluoromethyl)-1H,5H-imidazo[1,2-a]pyrimidin-5-one] | 815 nM |
| Cc1csc2nc(C(F)(F)F)c(-c3cnn(CC(F)(F)C(F)(F)F)c3)c(=O)n12 [Example 5, 3-methyl-6-[1-(2,2,3,3,3-pentafluoropropyl)-1H-pyrazol-4-yl]-7-(trifluoromethyl)-5H-[1,3]thiazolo[3,2-a]pyrimidin-5-one] | 482 nM |
| Cc1nn2c(=O)c(-c3cnn(CCC(F)(F)F)c3)c(C(F)(F)F)nc2n1C [Example 14, 2,3-dimethyl-5-(trifluoromethyl)-6-[1-(3,3,3-trifluoropropyl)-1H-pyrazol-4-yl]-3H,7H-[1,2,4]triazolo[1,5-a]pyrimidin-7-one] | 1430 nM |
| Cc1cn2c(=O)c(-c3cnn(CCC(F)(F)F)c3)c(C(F)(F)F)nc2n1CC1CC1(F)F (stereo not shown) [Example 81, 1-[(2,2-difluorocyclopropyl)methyl]-2-methyl-7-(trifluoromethyl)-6-[1-(3,3,3-trifluoropropyl)-1H-pyrazol-4-yl]-1H,5H-imidazo[1,2-a]pyrimidin-5-one] | 105 nM |
| Cc1nn2c(=O)c(-c3cnn(C[C@H]4CC4(F)F)c3)c(C(F)(F)F)nc2s1 (single isomer, unassigned) [Example 111] | 452 nM |
| Cc1nn2c(=O)c(-c3cnn(C[C@@H]4CC4(F)F)c3)c(C(F)(F)F)nc2s1 (single isomer, unassigned) [Example 112] | 861 nM |
| Cn1c(C2CC2)cn2c(=O)c(-c3cnn(CC(F)(F)C(F)(F)F)c3)c(C(F)(F)F)nc12 [Example 50, 2-cyclopropyl-1-methyl-6-[1-(2,2,3,3,3-pentafluoropropyl)-1H-pyrazol-4-yl]-7-(trifluoromethyl)-1H,5H-imidazo[1,2-a]pyrimidin-5-one] | 120 nM |

These reach a lower IC50. Values come first.

| IC50 | SMILES |
| --- | --- |
| 34.3 nM | CCn1c(C)cn2c(=O)c(-c3cnn(CC(F)(F)C(F)(F)F)c3)c(C(F)(F)F)nc12 [Example 56, 1-ethyl-2-methyl-6-[1-(2,2,3,3,3-pentafluoropropyl)-1H-pyrazol-4-yl]-7-(trifluoromethyl)-1H,5H-imidazo[1,2-a]pyrimidin-5-one] |
| 28.6 nM | Cc1cn2c(=O)c(-c3cnn(C[C@H]4CC4(F)F)c3)c(C(F)(F)F)nc2n1C (single isomer, unassigned) [Example 109] |
| 26 nM | Cc1cn2c(=O)c(-c3cnn(CC4CC4(F)F)c3)c(C(F)(F)F)nc2[nH]1 (racemic) [Example 76, 6-{1-[(2,2-difluorocyclopropyl)methyl]-1H-pyrazol-4-yl}-2-methyl-7-(trifluoromethyl)-1H,5H-imidazo[1,2-a]pyrimidin-5-one] |
| 19.4 nM | Cc1cccc(-n2c(C)cn3c(=O)c(-c4cnn(CC(F)(F)C(F)(F)F)c4)c(C(F)(F)F)nc23)n1 [Example 96, 2-methyl-1-(6-methylpyridin-2-yl)-6-[1-(2,2,3,3,3-pentafluoropropyl)-1H-pyrazol-4-yl]-7-(trifluoromethyl)-1H,5H-imidazo[1,2-a]pyrimidin-5-one] |
| 17.1 nM | Cc1cn2c(=O)c(-c3ccc(OCC(F)(F)F)cc3)c(C(F)(F)F)nc2n1C [Example 54, 1,2-dimethyl-6-[4-(2,2,2-trifluoroethoxy)phenyl]-7-(trifluoromethyl)-1H,5H-imidazo[1,2-a]pyrimidin-5-one] |
| 11.7 nM | Cc1cn2c(=O)c(-c3cnn(CC(F)(F)C(F)(F)F)c3)c(C(F)(F)F)nc2n1CCO [Example 79, 1-(2-hydroxyethyl)-2-methyl-6-[1-(2,2,3,3,3-pentafluoropropyl)-1H-pyrazol-4-yl]-7-(trifluoromethyl)-1H,5H-imidazo[1,2-a]pyrimidin-5-one] |
| 11.5 nM | Cn1ccn2c(=O)c(-c3cnn(CC(F)(F)C(F)(F)F)c3)c(C(F)(F)F)nc12 [Example 37, 1-methyl-6-[1-(2,2,3,3,3-pentafluoropropyl)-1H-pyrazol-4-yl]-7-(trifluoromethyl)-1H,5H-imidazo[1,2-a]pyrimidin-5-one] |
| 10.1 nM | Cc1cn2c(=O)c(-c3cnn(CC(F)(F)C(F)(F)F)c3)c(C(F)(F)F)nc2n1C1COC1 [Example 91, 2-methyl-1-(oxetan-3-yl)-6-[1-(2,2,3,3,3-pentafluoropropyl)-1H-pyrazol-4-yl]-7-(trifluoromethyl)-1H,5H-imidazo[1,2-a]pyrimidin-5-one] |
| 2.9 nM | Cc1cn2c(=O)c(-c3cnn(CC(F)(F)C(F)(F)F)c3)c(C(F)(F)F)nc2n1CC1CC1 [Example 62, 1-(cyclopropylmethyl)-2-methyl-6-[1-(2,2,3,3,3-pentafluoropropyl)-1H-pyrazol-4-yl]-7-(trifluoromethyl)-1H,5H-imidazo[1,2-a]pyrimidin-5-one] |
| 2.6 nM | Cn1ncn2c(=O)c(-c3cnn(CC(F)(F)C(F)(F)F)c3)c(C(F)(F)F)nc12 [Example 27, 1-methyl-6-[1-(2,2,3,3,3-pentafluoropropyl)-1H-pyrazol-4-yl]-7-(trifluoromethyl)-1H,5H-[1,2,4]triazolo[4,3-a]pyrimidin-5-one] |
| 1.3 nM | O=c1c(-c2cnn(CC(F)(F)C(F)(F)F)c2)c(C(F)(F)F)nc2sc(F)cn12 [Example 7, 2-fluoro-6-[1-(2,2,3,3,3-pentafluoropropyl)-1H-pyrazol-4-yl]-7-(trifluoromethyl)-5H-[1,3]thiazolo[3,2-a]pyrimidin-5-one] |
